Publication PMC5155016 (Nature chemical biology, 2015)
Where a chain is given by its changes, count along the chain named. Names and notes keep the numbering of the source.

How the values were obtained:
[1] = tested on: IDH2 R172 U87MG; experiment: IDH2 cellular 2-HG assay in R172 U87MG cells; assay type: cell-based; details: read-out: IDH2 IC50 R172 U87MG
[2] = molecular target: T1, IDH2 SW1353 cell 2-HG (Homo sapiens, UniProt P48735, R172S); experiment: IDH2 cellular 2-HG assay in SW1353 cells; assay type: cell-based; details: read-out: IDH2 IC50 SW1353 cell 2-HG
T1 sequence (P48735 40-452 R172S): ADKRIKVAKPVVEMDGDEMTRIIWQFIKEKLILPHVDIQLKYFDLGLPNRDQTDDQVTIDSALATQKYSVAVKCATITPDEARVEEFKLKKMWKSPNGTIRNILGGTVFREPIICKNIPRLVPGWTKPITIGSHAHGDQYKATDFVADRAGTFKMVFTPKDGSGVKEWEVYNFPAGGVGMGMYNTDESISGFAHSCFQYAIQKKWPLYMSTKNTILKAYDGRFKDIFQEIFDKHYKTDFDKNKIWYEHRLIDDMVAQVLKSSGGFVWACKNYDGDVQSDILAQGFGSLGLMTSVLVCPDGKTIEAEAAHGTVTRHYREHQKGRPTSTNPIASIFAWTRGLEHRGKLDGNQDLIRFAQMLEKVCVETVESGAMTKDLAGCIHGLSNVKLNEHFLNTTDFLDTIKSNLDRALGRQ

[3] = molecular target: homodimeric R132H IDH1 (Homo sapiens, UniProt O75874, R132H); experiment: Biochemical mechanism of inhibition analysis; details: by analogy with close analog
[4] = tested on: H3K9me2 in R132C IDH1 expressing HT-1080 cells; experiment: Western blot of histone H3K9me2 in HT-1080 cells; assay type: cell-based, human; details: 48 hours of treatment
[5] = Stability of compounds in media; assay type: physicochemical
[6] = tested on: R132G IDH1 AML cells; experiment: Intracellular 2-HG in primary R132G IDH1 AML cells ex vivo; assay type: cell-based, human; details: 1.7 μM
[7] = tested on: R132G IDH1 AML cells; experiment: Cell cycle analysis; assay type: cell-based, human; details: 3 μM, 7 days
[8] = tested on: R132C IDH1 AML cells; experiment: Cell cycle analysis; assay type: cell-based, human; details: 3 μM, 7 days
[9] = tested on: R132G IDH1 AML cells; experiment: Blast and G/M cell fractions by CD45/SSC flow cytometry; assay type: cell-based, human; details: 3 μM, 7 days
[10] = tested on: leukemic blasts; experiment: Leukemic blast analysis including HLA-DR and c-Kit markers; assay type: cell-based, human
[11] = tested on: R132G IDH1 mutant AML cells; experiment: DNA methylation profiling by ERRBS; assay type: cell-based, human; details: q-value < 0.001, methylation difference ≥ 25%
[12] = tested on: primary IDH1-mutant human AML cells in NSG mice; experiment: Xenotransplantation of primary IDH1 mutant AML cells in NSG mice; assay type: in vivo
[13] = PAMPA, pH 7.4
[14] = molecular target: R132C IDH1 mutant HT-1080 cells (Homo sapiens, UniProt O75874, R132C); experiment: Quantification of intracellular 2-HG in HT-1080 cells; assay type: cell-based
[15] = Pharmacokinetic analysis in mouse; assay type: in vivo; details: CD-1 mice, IP, 213 mg/kg, up to 24 hours
[16] = molecular target: the molecule itself; experiment: SEC

homodimeric R132H IDH1, sequence (O75874 whole entry R132H): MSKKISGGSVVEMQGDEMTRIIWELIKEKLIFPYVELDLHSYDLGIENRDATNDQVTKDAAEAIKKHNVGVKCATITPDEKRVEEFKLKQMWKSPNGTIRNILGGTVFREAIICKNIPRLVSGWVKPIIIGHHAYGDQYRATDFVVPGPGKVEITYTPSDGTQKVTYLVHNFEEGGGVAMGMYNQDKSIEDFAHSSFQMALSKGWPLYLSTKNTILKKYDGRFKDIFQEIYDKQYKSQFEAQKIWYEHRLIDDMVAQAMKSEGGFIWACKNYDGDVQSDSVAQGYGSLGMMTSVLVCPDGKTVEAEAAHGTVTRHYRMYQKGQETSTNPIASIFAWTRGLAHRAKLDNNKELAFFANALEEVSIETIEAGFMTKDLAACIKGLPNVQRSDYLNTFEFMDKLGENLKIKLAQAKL
R132C IDH1 mutant HT-1080 cells, sequence (O75874 whole entry R132C): as the sequence (O75874 whole entry R132H) above, with H132C counted along it
R132C IDH1 mutant HT-1080 cells, sequence (O75874 whole entry partner): as the sequence (O75874 whole entry R132H) above, with H132R counted along it

Molecule: C[C@H](O)c1cccc(NC(=O)c2nn(Cc3ccc(F)cc3)c3c2CN(C(=O)c2ccc[nH]2)C[C@H]3C)c1 [GSK321, (7R)-1-[(4-fluorophenyl)methyl]-N-{3-[(1S)-1-hydroxyethyl]phenyl}-7-methyl-5-(1H-pyrrol-2-ylcarbonyl)-4,5,6,7-tetrahydro-1H-pyrazolo[4,3c]pyridine-3-carboxamide]
- IC50 [1]: 7.94 µM
- IC50 [2]: 4.69 µM
- Mechanism of action versus NADPH [3]: mixed vs NADPH
- Mechanism of action versus αKG [3]: competitive vs αKG
- Effect on histone H3K9me2 levels [4]: markedly decreased H3K9me2 levels
- Stability in media [5]: at least 14 days
- Inhibition of intracellular 2-HG [6]: 78%
- Cells in G1-phase, R132G IDH1 [7]: 57.9 ± 6.9%
- Quiescent (G0)-phase cells, R132G IDH1 [7]: 36.7 ± 4.4%
- Cells in G1-phase, R132C IDH1 [8]: 66.8 ± 12.0%
- Quiescent (G0)-phase cells, R132C IDH1 [8]: 24.0 ± 11.8%
- Fraction of leukemic blast cells (CD45low/+ SSClow) in comparison to DMSO [9]: 0.7 ± 0.1 fold
- Leukemic blasts, analysis including HLA-DR and c-Kit markers [10]: 0.4 ± 0.2 fold
- Hypermethylated CpG loci ([11]; 3 μM, 6 days, vs controls): 10153
- Hypomethylated CpG loci ([11]; 3 μM, 6 days, vs controls): 18668
- Hypermethylated regions (DMRs) ([11]; 1kb tiles): 1157
- Hypomethylated regions (DMRs) ([11]; 1kb tiles): 2075
- 2HG in IDH1-mutant AML cells of treated mice ([12]; NSG mice): decrease in 2HG
- AMP (artificial membrane permeability) [13]: 32.4 ×10⁻⁶ cm/s
- AMP permeability class [13]: high

Molecule: COc1c(C)cc(NC(=O)c2nn(Cc3ccc(F)cc3)c3c2CN(C(=O)c2ccc[nH]2)C[C@]3(C)C(N)=O)cc1C [GSK864]
- EC50 [14]: 0.32 µM
- Blood concentrations after intraperitoneal administration [15]: significant concentrations of GSK864 were maintained
- Percentage of blast cells (SSClow CD45low/+) in bone marrow ([12]; NSG mice, 150 mg/kg): significant decrease in the percentage of blast cells
- huCD45+ CD38+ cells in bone marrow ([12]; R132C or R132H IDH1 mutant engrafted NSG mice, 150 mg/kg): slightly increased numbers of huCD45^+ CD38^+ cells

B1: IDH2(40-452)Flag wild type (enzyme, human, UniProt P48735 40-452, looked up)
chain: T1 sequence (P48735 40-452 R172S) with S133R
- binding result [16]: binds

B2: IDH2(40-452)Flag R140Q (enzyme, human, UniProt P48735 40-452, looked up)
chain: T1 sequence (P48735 40-452 R172S) with R101Q, S133R
- binding result [16]: binds

B3: IDH2(40-452)Flag R172S (enzyme, human, UniProt P48735 40-452, looked up)
chain: T1 sequence (P48735 40-452 R172S)
- binding result [16]: binds
